How the values were obtained:
[1] = tested on: HIV-1 infected CD4 T cells; assay: Killing / apoptosis (annexin-V, intracellular p24, EMA) of HIV-1 infected CD4 T cells by FACS; type: cell-based, human
Protocol: (§1) PBMC were infected with a high HIV-1 dose, incubated for three days with indicated concentrations of Gd-Tex, and assessed for annexin-V by flow cytometry. Live CD3 cells were gated and apoptotic percentages quantified for CD4 and CD8 cells.
PBMC were infected with high and low HIV-1 doses and treated for six days with the indicated concentrations and processed as indicated above.
Live CD4 T cells were gated and analyzed for annexin-V and p24 stain.
IL-2 activated, HIV-infected cultures were treated with Gd-Tex at the indicated concentrations for 6 days and processed for flow cytometry. […] Histograms are representative of 4 independent experiments.

[2] = tested on: uninfected CD4 T cells and CD8 T cells; type: cell-based, human
Protocol: as §1
At Gd-Tex doses below 250 µM, GSH depletion and Gd-Tex toxicity in CD8 T cells and uninfected CD4 T cells was minimal. […] These findings are shown in FIG. 4-5, in which data are shown for subset-defining cell surface marker expression, HIV infection, intracellular GSH and Gd-Tex toxicity (induction of apoptosis and the breaking of the cell permeability barrier), all measured simultaneously for individual cells by 11-color, 13-parameter Hi-D FACS.

glutathione (GSH) = assay: Intracellular glutathione levels by monochlorobimane fluorescence (flow cytometry); type: cell-based, human
Protocol: PBMC were isolated and HIV-1 infected as described in materials and methods. Intracellular glutathione levels were assessed using monochlorobimane fluorescence and samples were analyzed by flow cytometry.

HIV-1 = HIV-1 infected PBMC, TCID50=300/1×10^6 cells, FIG. 5

## CC(=O)[O-].CC(=O)[O-].CCc1c(CC)c2cc3nc(cnc4cc(OCCOCCOCCOC)c(OCCOCCOCCOC)cc4ncc4nc(cc1[n-]2)C(CCCO)=C4C)C(C)=C3CCCO.O.[Gd+3] [Gd-Tex, motexafin gadolinium]
[1]; 3 uM Gd-Tex
  Killing of HIV-infected (p24+) CD4 T cells: selectively killed
[1]; 50 μM Gd-Tex, 6 days
  p24 cells among live CD4 T cells infected with HIV-1: decrease of p24 cells
[1]; Gd-Tex concentrations not cytotoxic to uninfected cells
  Apoptosis induction in HIV-1 infected CD4 T cells: selectively induced apoptosis
[2]
  Gd-Tex toxicity in CD8 T cells and uninfected CD4 T cells: minimal
  Killing of uninfected CD4 T cells and CD8 T cells: did not kill
Glutathione (GSH); Gd-Tex doses below 250 µM
  GSH depletion in CD8 T cells and uninfected CD4 T cells: minimal
Glutathione (GSH); high doses of Gd-Tex
  GSH depletion in T cells in PBMC: depleted GSH
HIV-1
  HIV-1 production (RT activity, p24 levels): inhibition of HIV-1 production

Source: patent publication US20050118572A1, “Single cell assessment of viral infection/replication” (The Board of Trustees of the Leland Stanford Junior …, priority 2002, published 2005)
